These are literature values, as cited in patent publication US8617618B2, “Topical compositions containing magaldrate” (Difass International S.R.L., priority 2007, dated 2013).

For data set [1] the following is noted: single and repeated oral doses.
The subject of another data set is gastric pH. Particulars: rapid, persistent ability to maintain the gastric pH.
For data set [2] the following is noted: in water and alcohol; white, crystalline powder.
For data set [3] the following is noted: humans, oral intake.

Turning to Magaldrate, the toxicity result in data set [1] is given as “almost non-toxic”. In addition, the “gastric pH maintained” value in the data set on gastric pH was 3-5. Also, the solubility entry in data set [2] was “insoluble”. Also, the “absorption of aluminium or magnesium” value in data set [3] is “not followed by any significant absorption”.
